Experiments:
Format in all cases: cell-based, human
[1] = system: isogenic HCT116 cell line panel; test: Cell-Titer glow cytotoxicity, potency comparison across the panel; conditions: IC50 values, independently of HCT116 p53-status
Description: CellTiter-Glo® luminescent cell viability assay. Cells were seeded in 96-well plates at a density of 5×10^3 cells per well. 20 μL of CellTiter-Glo® Reagent was added directly to the wells, following the manufacturers protocol. The bioluminescence signal was determined using an IVIS imaging system, optionally at a period of 48-72 hours after treatment.
CB002-analog #4 is a potent anti-tumor agent in vitro and in vivo. The inventors focused on lead CB002-analog #4 and investigated its therapeutic index in vitro and in vivo. The inventors treated an isogenic HCT116 cell line panel with 100 μM CB002 or 25 μM CB002-analog #4 and established IC50 values by the Cell-Titer glow cytotoxicity assay. Across this panel, CB002-analog #4 has a 20-fold to 30-fold range in IC50 values, independently of the HCT116 p53-status.

[2] = system: SW480 cells; test: Microarray transcriptomic analysis with ingenuity pathway analysis; conditions: twelve hours treatment
Description: Microarray analysis. SW480 cells were seeded at a density of 1×10^6 in 10 cm dishes. After being adhered, the cells were treated with dimethyl sulfoxide vehicle control or CB002-analog #4. Floating cells were collected, and adherent cells were trypsinized at twelve hours of treatment. The cells were pelleted. According to manufacturer instructions, RNA was isolated from the cells using a Quick-RNA™ MiniPrep (#R1055, Zymo Research Irvine, Calif., USA). RNA quality was tested using an Agilent Bioanalyzer RNA kit. When the RNA quality was enough, RNA was amplified and labeled using the low RNA input linear amplification kit commercially available from Agilent Technologies, Santa Clara, Calif., USA. Labeled cDNA was hybridized onto Affymetrix Human Gene 2.0-ST array. Significant changes in gene expression were determined at 1.5-fold either up or down in dimethyl sulfoxide vehicle control versus CB002-analog #4.

[3] = system: SW480 colon cancer cells; test: Label-free quantitative proteomic analysis; conditions: twenty-four hours
Description: Proteomic analysis. SW480 cells were seeded at a density of 1×10^6 in 10 cm dishes and treated with dimethyl sulfoxide vehicle control or CB002-analog #4 for twenty-four hours. Floating cells were collected. Adherent cells were trypsinized. Cells were spun down and washed with phosphate-buffered saline. The pelleted cells were frozen and submitted for LC-MS/MS identification and comparative analysis at the Center for Cancer Research Development, Proteomics Core Facility at the Rhode Island Hospital. Samples (cell pellets) were lysed with a lysis buffer (8M urea, 1 mM sodium orthovanadate, 20 mM HEPES, 2.5 mM sodium pyrophosphate, 1 mM β-glycerophosphate, pH 8.0, twenty minutes, 4° C.) followed by sonication at 40% amplification by using a microtip sonicator (QSonica, LLC, Model no. Q55) and cleared by centrifugation (14,000×g, fifteen minutes, 15° C.). Protein concentration was measured (Pierce BCA Protein Assay, Thermo Fisher Scientific, Waltham, Mass., USA). A total of 100 μg of protein per sample was subjected to trypsin digestion. Tryptic peptides were desalted using C18 Sep-Pak plus cartridges (Waters, Milford, Mass., USA) and were lyophilized for forty-eight hours to dryness. […]
Sample preparation for LC-MS/MS analysis. […] Protein concentration was measured (Pierce BCA Protein Assay, Thermo Fisher Scientific) and 100 μg of protein per sample was subjected for trypsin digestion. […]

SMILES: Cn1c(=O)c2[nH]c(Nc3cccc(C(F)(F)F)c3)nc2n(C)c1=O [CB002-analog #4]
- potency relative to CB002 [1]: 20-30 times
- p53 target genes Noxa, Puma, and DR5 expression [2]: upregulated
- p53 upstream regulator activation z-score (IPA) [2]: 3.3
- CDK4, CKS1B, ERCC6L, MAPK3, and MAX protein abundance [3]: decreased
